Reference: patent US7498406B2, “Substantially cell membrane impermeable compound and use thereof” (priority 1999, dated 2009)

Assays:
BAE cells [1] = assay type: cell-based, bovine; conditions: up to 10 mM concentration (not shown)
[2] = Interaction of GSAO with synthetic, peptide and protein dithiols; assay type: binding; conditions: read-out: dissociation constants, range over the dithiols
Protocol: FIG. 12. Interaction of GSAO with synthetic, peptide and protein dithiols. DMP (A) (15 μM), 6,8-thioctic acid (B) ([…]), dithiothreitol (C) (8.5 μM), TrpCysGlyProCysLys (D) (4.6 μM), TrpCysGlyHisCysLys (E) (5.5 μM) or thioredoxin (F) (4.1 μM corresponding to 20.6 μM thiols) was incubated with GSAO (0-56 μM) for 10 minutes. DTNB (950 μM) was then added and the reactions incubated for a further 10 minutes. The concentration of thiol in the reactions was determined from the absorbance of the TNB dianion at 412 nm. The solid lines represent the best non-linear least squares fit of the data to Equation 1 (A to E) or Equation 2 (F) and have been drawn using the parameter estimates in Table 1. The dotted line in part A represents a simulated titration assuming an infinite affinity of GSAO for the dithiol. GSAO bound to both synthetic, peptide and protein dithiols with dissociation constants in the range 130 nM to 1.4 μM.
Binding of GSAO to dithiols was measured from loss of thiols using the DTNB assay described above. The dissociation constant, Kd, for GSAO binding to dithiols was determined by incubating increasing concentrations of GSAO, I, with a fixed dithiol concentration, [S]T, and measuring the remaining dithiol using DTNB. Note that the concentration of dithiol equals half the TNB concentration. […]

BAE cells [3] = assay: Tritiated GSAO in cytosol (membrane permeability); assay type: in vitro ADME, bovine; conditions: 50 μM GSAO, 1 hour
Protocol: Human T cells (A3.01) or adherent BAE cells were incubated with complete medium containing 50 μM GSAO and ˜100,000 counts per, minute of tritiated GSAO for 1 or 72 hours. Tritiated GSAO was prepared exactly as described for GSAO except that glycine-2-^3H-glutathione (NEN, Boston, Mass.) was used in place of cold glutathione. The cells were washed and lysed by two cycles of freezing and thawing. The cytosolic constituents were collected by differential centrifugation (Ausbel et al., 2000) and the tritiated GSAO was measured. Only 0.5% of the total tritiated GSAO was found in the T cell cytosol and 0.04% in the BAE cytosol after 1 hour. Moreover, only 4.5% of the GSAO penetrated the T cell membrane after 72 hours of culture.

[4] = system: primary HIV isolates (HN11, HN68 or HN70); assay: Infection of PBMC's by primary HIV isolates, p24 antigen; assay type: cell-based; conditions: 10 μM, 7 days
Protocol: PBMC's (1×10^6 per mL) were incubated with GSAA or GSAO (10 μM) for 30 minutes at 37° C. and then with primary HIV isolates (HN11, HN68 or HN70 at 50 TCID50 per 10^6 cells) for 2 hours at 37° C. Cells were washed and incubated in complete medium containing GSAA or GSAO (10 μM) at 5% CO2 and 37° C. for up to 7 days. At the indicated times the conditioned medium was collected and assayed for p24 antigen and cell number and cell viability was determined.
The primary HIV isolates, HN11, HN68 and HN70, were provided by Dr. Hassan Naif, Centre for Virus Research, Westmead Millennium Institute, NSW, Australia. […] The blood was diluted 1:2 with PBS, layered onto Ficoll-Hypaque (35 mL blood onto 15 mL Ficoll-Hypaque) in 50 mL Falcon tubes and centrifuged at 400 g for 20 minutes at 20° C. The PBMC's were collected and pelleted at 1200 rpm for 10 minutes to remove platelets, resuspended at 2×10^6 cells per mL in RPMI containing 20% horse serum (Gibco BRL, Gaithersburg, Md.), 10 μg per mL phytohemagglutinin-M (PHA-M, Boehringer Mannheim Biochemica, Mannheim, Germany) and […] interleukin-2 (Sigma, St. Louis, Mo.) and incubated for 2 days at 5% CO2 and 37° C., PBMC (1×10^6 per mL) were incubated with GSAO or GSAA (10 μM) for 30 minutes at 37° C. in serum-free media. Virus was added at 50 TCID50 per 10^6 cells for 2 hours at 37° C.. […]

SMILES | effect on BAE viability (BAE cells [1]) | Kd [2] [nM] | total tritiated GSAO found in the cytosol (BAE cells [3]) [%] | infection of PBMC's by primary HIV isolates [4]
N[C@@H](CCC(=O)N[C@@H](CSCC(=O)Nc1ccc([As](=O)(O)O)cc1)C(=O)NCC(=O)O)C(=O)O [GSAA, 4-(N-(S-glutathionylacetyl)amino)phenylarsonic acid, reference compound] | no significant effect | – | – | –
NC(CCC(=O)NC(CSCC(=O)Nc1ccc([As]=O)cc1)C(=O)NCC(=O)O)C(=O)O (stereo not shown) [GSAO, 4-(N-(S-glutathionylacetyl)amino)-phenylarsenoxide] | – | 130 to 1400 | 0.04 | blocked infection
